Key:
[1] = molecular target: T1, Anionic trypsin-2 (Rattus norvegicus, UniProt P00763); assay: Inhibitory concentration against trypsin
T1 sequence (P00763 whole entry): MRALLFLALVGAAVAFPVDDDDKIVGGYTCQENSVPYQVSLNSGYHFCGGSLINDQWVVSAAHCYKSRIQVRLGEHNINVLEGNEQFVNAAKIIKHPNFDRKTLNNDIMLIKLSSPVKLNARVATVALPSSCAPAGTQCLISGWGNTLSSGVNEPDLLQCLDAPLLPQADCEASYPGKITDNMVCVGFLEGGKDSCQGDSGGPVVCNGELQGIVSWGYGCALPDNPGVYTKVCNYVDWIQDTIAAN

[2] = molecular target: Coagulation factor X (Homo sapiens, UniProt P00742); assay: Inhibitory concentration to factor Xa
[3] = molecular target: T2, Prothrombin (Homo sapiens, UniProt P00734)
[4] = Bioavailability in rat at an oral dose of 2 mg/kg; type: ADME, organism-based; conditions: in vivo
[5] = Half-life period in rabbits following intravenous administration at 2 mg/kg; type: ADME, organism-based, Oryctolagus cuniculus; set-up: dose 2 mg/kg, route intravenous; conditions: rabbit, in vivo
[6] = tested on: Oryctolagus cuniculus; assay: Percent inhibition of thrombosis at the dose of 100 ug/kg in rabbit deep vein thrombosis model; type: functional
[7] = Half-life period in rats following intravenous administration at 2 mg/kg; type: ADME, organism-based; set-up: dose 2 mg/kg, route intravenous; conditions: rat, in vivo
[8] = tested on: Oryctolagus cuniculus; assay: Percent inhibition of thrombosis at the dose of 25 ug/kg in rabbit deep vein thrombosis model; type: functional; conditions: at 25 µg/kg
[9] = tested on: Oryctolagus cuniculus; assay: Plasma concentration at the dose of 100 ug/kg in rabbit; type: functional, organism-based
[10] = molecular target: T2, Prothrombin; assay: Inhibitory concentration against factor IIa
[11] = tested on: Oryctolagus cuniculus; assay: Percent inhibition of thrombosis at the dose of 50 ug/kg in rabbit deep vein thrombosis model; type: functional

Sequence of Coagulation factor X (P00742 41-179 limits assumed): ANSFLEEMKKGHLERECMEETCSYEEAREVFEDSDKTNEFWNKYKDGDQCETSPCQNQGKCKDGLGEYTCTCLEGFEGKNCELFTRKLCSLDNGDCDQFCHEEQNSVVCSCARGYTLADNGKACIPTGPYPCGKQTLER
Sequence of Coagulation factor X (P00742 235-488 limits assumed): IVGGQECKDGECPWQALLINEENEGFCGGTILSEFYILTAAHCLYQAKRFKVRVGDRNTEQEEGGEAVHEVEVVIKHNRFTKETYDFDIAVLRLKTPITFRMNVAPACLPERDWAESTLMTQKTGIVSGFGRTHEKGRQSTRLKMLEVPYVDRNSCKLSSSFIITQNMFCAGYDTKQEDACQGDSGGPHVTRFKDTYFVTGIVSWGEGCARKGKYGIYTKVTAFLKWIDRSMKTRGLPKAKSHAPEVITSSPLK

Structure (SMILES)	IC50 [1] [nM]	IC50 [2] [nM]	IC50 [3] [nM]	also measured
CC(=N)N1CCC(Oc2ccc3c(c2)OCC(=O)N3Cc2cc3ccc(C(=N)N)cc3n2C)CC1	76			
Cc1cc(CN(c2ccc(-c3ccccc3S(N)(=O)=O)cc2)S(C)(=O)=O)nn1-c1cccc(C(=N)N)c1		3930		
CC(=N)N1CCC(Oc2ccc(N(Cc3cc(C)nn3-c3cccc(C(=N)N)c3)S(C)(=O)=O)cc2)CC1	> 10000		> 10000	
CC(=N)N1CCC(Oc2ccc(N(Cc3ccc4ccc(C(=N)N)cc4c3)S(=O)(=O)CC(=O)O)cc2)CC1 [YM-60828]	63			
CC(=N)N1CCC(Oc2ccc(N(Cc3cccc(-c4cccc(C(=N)N)c4)c3)S(C)(=O)=O)cc2)CC1	360		> 10000	
CCOC(=O)CS(=O)(=O)N(Cc1cccc(-c2cccc(C(=N)N)c2)c1)c1ccc(OC2CCN(C(C)=N)CC2)cc1	292	7		
CCOC(=O)CS(=O)(=O)N(Cc1cc2cc(C(=N)N)ccc2s1)c1ccc(OC2CCN(C(C)=N)CC2)cc1	86			
CS(=O)(=O)N(Cc1cccc(-c2cccc(C(=N)N)c2)c1)c1ccc(-c2ccccc2S(N)(=O)=O)cc1		191		
CC(=N)N1CCC(Oc2ccc3c(c2)OCC(=O)N3Cc2cc(-c3cccc(C(=N)N)c3)no2)CC1	250000		> 10000	
CC(=N)N1CCC(Oc2ccc3c(c2)OCC(=O)N3Cc2ccc3ccc(C(=N)N)cc3c2)CC1	28			bioavailability [4]: 4.6%; half-life [5]: 54 min; inhibition in vivo at 0.1 mg/kg [6]: 99%; half-life [7]: 30 min; inhibition in vivo at 0.025 mg/kg [8]: 7%; Concentration [9]: 200 nM; IC50 [10]: > 10000 nM; inhibition in vivo at 0.05 mg/kg [11]: 44%
CC(=N)N1CCC(Oc2ccc(N(Cc3cccc(-c4cccc(C(=N)N)c4)c3)S(=O)(=O)CC(=O)O)cc2)CC1	269	3		
CC(=N)N1CCC(Oc2ccc(N(Cc3cc4ccc(C(=N)N)cc4n3C)S(C)(=O)=O)cc2)CC1	25	0.8	> 10000	
CCn1c(CN2C(=O)COc3cc(OC4CCN(C(C)=N)CC4)ccc32)cc2ccc(C(=N)N)cc21	58	2		
CC(=N)N1CCC(Oc2ccc3c(c2)OCC(=O)N3Cc2cccc(-c3cccc(C(=N)N)c3)c2)CC1	143		> 10000	
CC(=N)N1CCC(Oc2ccc(N(Cc3cc4cc(C(=N)N)ccc4s3)S(C)(=O)=O)cc2)CC1	21		> 10000	
CC(=N)N1CCC(Oc2ccc(N(Cc3cc(C)n(-c4cccc(C(=N)N)c4)n3)S(C)(=O)=O)cc2)CC1	2110		> 10000	
CC(=N)N1CCC(Oc2ccc(N(Cc3cc4cc(C(=N)N)ccc4s3)S(=O)(=O)CC(=O)O)cc2)CC1	63	3		
CC(=N)N1CCN(C(=O)c2ccc(N(Cc3ccc4ccc(C(=N)N)cc4c3)S(C)(=O)=O)cc2)CC1		1570		
CCOC(=O)CS(=O)(=O)N(Cc1ccc2ccc(C(=N)N)cc2c1)c1ccc(OC2CCN(C(C)=N)CC2)cc1	83	6		
CC(=N)N1CCC(Oc2ccc(N(Cc3ccccc3-c3cccc(C(=N)N)c3)S(C)(=O)=O)cc2)CC1	> 10000	7000	> 10000	
CC(=N)N1CCC(Oc2ccc(N(Cc3ccccc3-c3ccc(C(=N)N)cc3)S(C)(=O)=O)cc2)CC1	> 10000	> 10000	> 10000	
CC(=N)N1CCC(Oc2ccc(N(Cc3ccc4ccc(C(=N)N)cc4c3)S(C)(=O)=O)cc2)CC1	94	6	> 10000	
CS(=O)(=O)N(Cc1ccc2ccc(C(=N)N)cc2c1)c1ccc(-c2ccccc2S(N)(=O)=O)cc1		153		
CC(=N)N1CCC(Oc2ccc(N(Cc3cc(-c4cccc(C(=N)N)c4)no3)S(C)(=O)=O)cc2)CC1	> 10000	14	> 10000	
CC(=N)N1CCC(Oc2ccc(N(Cc3cc4cc(C(=N)N)ccc4n3C)S(C)(=O)=O)cc2)CC1	167	31	> 10000	
CC(=N)N1CCC(Oc2ccc(N(Cc3ccc(-c4cccc(C(=N)N)c4)cc3)S(C)(=O)=O)cc2)CC1	769		> 10000	
Cc1cc(CN(c2ccc(-c3ccccc3S(N)(=O)=O)cc2)S(C)(=O)=O)n(-c2cccc(C(=N)N)c2)n1		500		

Reference: ChEMBL document CHEMBL1136571, “Design, synthesis and structure-activity relationships of benzoxazinone-based factor Xa inhibitors” (Bioorg Med Chem Lett, 2003)
